The supplement of paper PMC10307832

What was measured:
Assay in all cases: relative viability (nuclei count vs DMSO), 5 days (fraction); higher = more cells survive
[1] = compound: CC[C@@H](C)CNCC(=O)N1CCC2=C([C@@H]1COC3=CC=CC(=C3)C)C=CS2 [RU-SKI 43] + CS(=O)(=O)CCNCc1ccc(-c2ccc3ncnc(Nc4ccc(OCc5cccc(F)c5)c(Cl)c4)c3c2)o1 [Lapatinib] (partner 2 µM)
In short: (§1)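 One day after seeding in 1536-well plates, lung cancer cell lines were dosed by pin tool. Dosing was either single-drug or a fixed anchor-drug dose plus five library-drug doses (not always all listed) in √10 steps. After 5 days, nuclei were stained in one fix-and-stain step and counted on 4× images, and relative viability is the nuclei count of treated wells over that of vehicle wells, given as the median of duplicate plates.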

[2] = compound: CC[C@@H](C)CNCC(=O)N1CCC2=C([C@@H]1COC3=CC=CC(=C3)C)C=CS2 [RU-SKI 43] + CS(=O)(=O)N1CCN(Cc2cc3nc(-c4cccc5[nH]ncc45)nc(N4CCOCC4)c3s2)CC1 [Pictilisib] (partner 1 µM)
In short: as §1

[3] = compound: Cn1cc(-c2cnc3ccc4ccc(CS(=O)(=O)NCc5ccccn5)cc4c(=O)c3c2)cn1 [MK-8033] + CS(=O)(=O)N1CCN(Cc2cc3nc(-c4cccc5[nH]ncc45)nc(N4CCOCC4)c3s2)CC1 [Pictilisib] (partner 1 µM)
In short: as §1

[4] = compound: Cn1cc(-c2cnc3ccc4ccc(CS(=O)(=O)NCc5ccccn5)cc4c(=O)c3c2)cn1 [MK-8033] + Nc1ncn([C@H]2C[C@H](O)[C@@H](CO)O2)c(=O)n1 [Decitabine] (partner 2 µM)
In short: as §1

| Cell Line | relative viability ([1]; first compound 0.1 µM) | relative viability ([1]; first compound 0.3162 µM) | relative viability ([1]; first compound 1 µM) | relative viability ([1]; first compound 3.162 µM) | relative viability ([1]; first compound 10 µM) | relative viability ([2]; first compound 0.1 µM) | relative viability ([2]; first compound 0.3162 µM) | relative viability ([2]; first compound 1 µM) | relative viability ([2]; first compound 3.162 µM) | relative viability ([2]; first compound 10 µM) | relative viability ([3]; first compound 0.02 µM) | relative viability ([3]; first compound 0.06325 µM) | relative viability ([3]; first compound 0.2 µM) | relative viability ([3]; first compound 0.6325 µM) | relative viability ([3]; first compound 2 µM) | relative viability ([4]; first compound 0.02 µM) | relative viability ([4]; first compound 0.06325 µM) | relative viability ([4]; first compound 0.2 µM) | relative viability ([4]; first compound 0.6325 µM) | relative viability ([4]; first compound 2 µM) |
| --- | --- | --- | --- | --- | --- | --- | --- | --- | --- | --- | --- | --- | --- | --- | --- | --- | --- | --- | --- | --- |
| LXF-289 | 0.906 | 0.88 | 0.979 | 0.989 | 0.878 | 0.828 | 0.809 | 0.832 | 0.794 | 0.744 | 0.789 | 0.64 | 0.721 | 0.734 | 0.823 | 0.377 | 0.394 | 0.352 | 0.408 | 0.338 |
| NCI-H23 | 0.834 | 1.22 | 1.37 | 1.12 | 0.916 | 0.441 | 0.497 | 0.536 | 0.492 | 0.468 | 0.377 | 0.397 | 0.378 | 0.561 | 0.384 | 0.282 | 0.332 | 0.3 | – | 0.299 |
| NCI-H322M | 0.586 | 0.635 | 0.671 | 0.635 | 0.604 | 0.586 | 0.469 | 0.559 | 0.51 | 0.482 | 0.511 | 0.438 | 0.496 | 0.464 | 0.523 | 0.74 | 0.663 | 0.742 | 0.762 | 0.747 |
| NCI-H358 | 0.483 | 0.545 | 0.495 | 0.53 | 0.448 | 0.291 | 0.315 | 0.332 | 0.336 | 0.286 | 0.306 | 0.344 | 0.331 | 0.395 | 0.227 | 0.205 | 0.192 | 0.211 | 0.261 | 0.198 |
| NCI-H460 | 0.993 | 1.33 | 1.55 | 1.25 | 1.01 | 0.335 | 0.35 | 0.45 | 0.263 | 0.238 | 0.432 | 0.285 | 0.395 | 0.253 | 0.402 | 0.525 | 0.439 | 0.446 | 0.451 | 0.475 |
| NCI-H520 | 0.897 | 0.986 | 0.996 | 0.951 | 0.756 | 0.279 | 0.326 | 0.385 | 0.456 | 0.306 | 0.28 | 0.221 | 0.295 | 0.283 | 0.323 | 0.525 | 0.485 | 0.527 | 0.535 | 0.465 |
| NCI-H596 | 1.09 | 1.06 | 0.997 | 1.19 | 1.14 | 0.379 | 0.43 | 0.42 | 0.414 | 0.57 | 0.352 | 0.319 | 0.379 | 0.384 | 0.397 | 0.987 | 0.901 | 0.921 | 1.12 | 1.03 |
| NCI-H647 | 1.24 | 1.22 | 1.16 | 1.25 | 1.26 | 0.392 | – | 0.547 | 0.428 | 0.412 | 0.444 | 0.421 | 0.398 | 0.41 | 0.471 | 0.33 | 0.362 | 0.382 | 0.372 | 0.305 |
